In paper PMC6138237, “Machine intelligence decrypts β-lapachone as an allosteric 5-lipoxygenase inhibitor” (Chemical Science, 2018):
Like-named read-outs stand apart in the source and are kept apart here.

What was measured:
12-LO = biological target: T1, 12-LO (Homo sapiens, UniProt P18054); experiment: 12-LO inhibition assay, Cerep (Method A, photometry); assay type: biochemical
T1 sequence (P18054 1-663): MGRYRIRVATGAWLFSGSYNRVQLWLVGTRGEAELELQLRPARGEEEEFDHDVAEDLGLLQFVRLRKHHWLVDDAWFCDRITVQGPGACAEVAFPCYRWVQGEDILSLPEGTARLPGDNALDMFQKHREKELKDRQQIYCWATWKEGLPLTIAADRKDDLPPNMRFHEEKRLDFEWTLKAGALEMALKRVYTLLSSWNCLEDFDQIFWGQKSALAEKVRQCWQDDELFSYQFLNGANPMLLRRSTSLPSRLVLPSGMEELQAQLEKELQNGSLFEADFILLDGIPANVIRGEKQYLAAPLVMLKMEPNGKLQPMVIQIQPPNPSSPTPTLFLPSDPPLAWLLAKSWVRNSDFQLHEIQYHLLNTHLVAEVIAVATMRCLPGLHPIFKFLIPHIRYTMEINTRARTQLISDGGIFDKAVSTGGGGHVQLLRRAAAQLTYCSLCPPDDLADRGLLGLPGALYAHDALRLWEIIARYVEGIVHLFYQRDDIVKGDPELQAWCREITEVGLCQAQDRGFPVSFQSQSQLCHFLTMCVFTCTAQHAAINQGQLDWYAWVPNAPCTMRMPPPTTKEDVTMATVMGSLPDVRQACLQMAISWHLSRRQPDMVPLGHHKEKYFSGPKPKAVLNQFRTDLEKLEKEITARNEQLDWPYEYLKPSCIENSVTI

EGFR = EGFR (Homo sapiens, UniProt P00533); experiment: ExpresS Diversity Kinase Profile, Cerep (LANCE): EGFR; assay type: biochemical
EphA3 = biological target: T2, EphA3 (Homo sapiens, UniProt P29320); experiment: ExpresS Diversity Kinase Profile, Cerep (LANCE): EphA3; assay type: biochemical
T2 sequence (P29320 21-983): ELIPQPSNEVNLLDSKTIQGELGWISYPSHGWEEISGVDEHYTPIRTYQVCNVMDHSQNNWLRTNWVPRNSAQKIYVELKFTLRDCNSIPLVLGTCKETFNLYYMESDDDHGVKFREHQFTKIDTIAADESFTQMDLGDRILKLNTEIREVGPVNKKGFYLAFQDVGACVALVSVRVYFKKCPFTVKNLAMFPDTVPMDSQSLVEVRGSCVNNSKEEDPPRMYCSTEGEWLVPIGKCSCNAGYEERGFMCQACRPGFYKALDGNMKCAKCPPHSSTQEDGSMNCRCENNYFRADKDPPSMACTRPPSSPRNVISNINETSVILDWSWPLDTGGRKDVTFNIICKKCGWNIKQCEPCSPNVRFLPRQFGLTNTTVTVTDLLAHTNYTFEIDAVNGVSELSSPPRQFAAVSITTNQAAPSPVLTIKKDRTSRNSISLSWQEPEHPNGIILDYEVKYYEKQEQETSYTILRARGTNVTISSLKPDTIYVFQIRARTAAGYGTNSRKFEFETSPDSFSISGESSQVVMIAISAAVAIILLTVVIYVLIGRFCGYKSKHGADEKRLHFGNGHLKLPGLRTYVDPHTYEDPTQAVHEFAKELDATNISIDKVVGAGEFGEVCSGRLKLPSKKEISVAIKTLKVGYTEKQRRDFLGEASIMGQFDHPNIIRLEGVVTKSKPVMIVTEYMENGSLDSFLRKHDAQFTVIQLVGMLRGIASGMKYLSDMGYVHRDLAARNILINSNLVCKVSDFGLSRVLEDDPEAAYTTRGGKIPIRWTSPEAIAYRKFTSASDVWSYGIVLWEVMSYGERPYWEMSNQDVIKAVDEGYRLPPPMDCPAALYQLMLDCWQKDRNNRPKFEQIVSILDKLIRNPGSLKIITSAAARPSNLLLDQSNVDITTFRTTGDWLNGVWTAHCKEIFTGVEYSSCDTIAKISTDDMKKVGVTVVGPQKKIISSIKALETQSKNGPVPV

Lck = Lck (Homo sapiens, UniProt P06239); experiment: ExpresS Diversity Kinase Profile, Cerep (LANCE): Lck; assay type: biochemical
ERK2 = ERK2 (Homo sapiens, UniProt P28482); experiment: ExpresS Diversity Kinase Profile, Cerep (LANCE): ERK2; assay type: biochemical
HL-60 cells = experiment: HL-60 cell viability assay (Alamar Blue, 48 hours); details: Homo sapiens, HL-60, 48 h
EP1 = biological target: T3, EP1 (Homo sapiens, UniProt P34995); experiment: EP1 functional antagonist assay, Cerep (PGE2 3 nM, intracellular Ca2+)
T3 sequence (P34995 1-402): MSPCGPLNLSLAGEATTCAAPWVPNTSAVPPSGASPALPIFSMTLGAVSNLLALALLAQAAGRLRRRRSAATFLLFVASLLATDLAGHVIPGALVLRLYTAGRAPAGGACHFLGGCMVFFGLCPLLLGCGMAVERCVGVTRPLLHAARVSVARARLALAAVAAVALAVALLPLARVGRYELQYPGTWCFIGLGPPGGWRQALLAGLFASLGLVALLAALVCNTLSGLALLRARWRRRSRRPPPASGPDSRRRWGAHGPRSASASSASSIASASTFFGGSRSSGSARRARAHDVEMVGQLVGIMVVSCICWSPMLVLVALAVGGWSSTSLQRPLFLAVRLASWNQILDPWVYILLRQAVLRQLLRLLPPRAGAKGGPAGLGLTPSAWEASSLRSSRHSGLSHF

[1] = n = 2, read-out: % Inhibition of control values, Mean
[2] = read-out: % Inhibition of control values, 1st measurement
[3] = read-out: % Inhibition of control values, 2nd measurement

ERK2, sequence (P28482 whole entry): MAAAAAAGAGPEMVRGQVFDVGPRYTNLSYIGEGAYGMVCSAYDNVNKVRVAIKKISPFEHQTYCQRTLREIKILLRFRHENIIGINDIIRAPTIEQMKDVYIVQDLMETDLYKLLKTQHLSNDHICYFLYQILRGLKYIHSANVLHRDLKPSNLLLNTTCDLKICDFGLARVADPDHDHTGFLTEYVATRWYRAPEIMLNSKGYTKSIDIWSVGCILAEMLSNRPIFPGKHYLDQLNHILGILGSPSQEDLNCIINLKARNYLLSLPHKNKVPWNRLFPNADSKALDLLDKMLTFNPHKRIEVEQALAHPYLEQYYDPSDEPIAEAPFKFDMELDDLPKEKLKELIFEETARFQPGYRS
EGFR, sequence (P00533 25-1210): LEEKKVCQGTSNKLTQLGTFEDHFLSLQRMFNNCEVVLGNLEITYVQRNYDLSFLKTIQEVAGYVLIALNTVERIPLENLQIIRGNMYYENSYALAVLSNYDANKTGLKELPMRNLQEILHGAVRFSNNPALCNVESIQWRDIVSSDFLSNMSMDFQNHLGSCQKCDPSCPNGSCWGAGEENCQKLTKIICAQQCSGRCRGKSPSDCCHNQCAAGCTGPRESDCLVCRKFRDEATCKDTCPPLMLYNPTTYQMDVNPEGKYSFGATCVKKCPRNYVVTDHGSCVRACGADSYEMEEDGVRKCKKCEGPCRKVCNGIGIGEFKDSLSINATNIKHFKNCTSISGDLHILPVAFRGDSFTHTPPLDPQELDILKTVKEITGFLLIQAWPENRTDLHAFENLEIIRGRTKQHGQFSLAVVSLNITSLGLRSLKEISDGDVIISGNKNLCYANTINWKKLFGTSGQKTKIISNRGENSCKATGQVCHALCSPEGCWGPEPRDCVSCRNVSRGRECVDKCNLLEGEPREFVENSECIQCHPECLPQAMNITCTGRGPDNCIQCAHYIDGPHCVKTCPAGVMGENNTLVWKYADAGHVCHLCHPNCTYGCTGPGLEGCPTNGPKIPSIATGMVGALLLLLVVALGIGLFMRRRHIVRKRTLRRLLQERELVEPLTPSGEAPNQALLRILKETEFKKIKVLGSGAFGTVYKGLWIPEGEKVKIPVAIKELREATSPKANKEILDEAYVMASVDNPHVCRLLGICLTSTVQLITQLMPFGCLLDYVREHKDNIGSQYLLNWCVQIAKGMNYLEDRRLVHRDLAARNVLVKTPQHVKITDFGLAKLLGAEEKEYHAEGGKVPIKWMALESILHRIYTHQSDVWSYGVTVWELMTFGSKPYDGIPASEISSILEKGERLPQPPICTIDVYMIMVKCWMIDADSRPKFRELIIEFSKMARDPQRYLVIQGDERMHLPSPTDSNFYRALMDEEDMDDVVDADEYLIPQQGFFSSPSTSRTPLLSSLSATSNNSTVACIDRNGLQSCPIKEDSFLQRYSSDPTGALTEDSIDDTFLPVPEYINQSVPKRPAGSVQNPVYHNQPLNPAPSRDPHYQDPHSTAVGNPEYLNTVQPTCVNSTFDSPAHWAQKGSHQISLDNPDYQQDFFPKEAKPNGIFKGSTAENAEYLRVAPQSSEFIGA
Lck, sequence (P06239 whole entry): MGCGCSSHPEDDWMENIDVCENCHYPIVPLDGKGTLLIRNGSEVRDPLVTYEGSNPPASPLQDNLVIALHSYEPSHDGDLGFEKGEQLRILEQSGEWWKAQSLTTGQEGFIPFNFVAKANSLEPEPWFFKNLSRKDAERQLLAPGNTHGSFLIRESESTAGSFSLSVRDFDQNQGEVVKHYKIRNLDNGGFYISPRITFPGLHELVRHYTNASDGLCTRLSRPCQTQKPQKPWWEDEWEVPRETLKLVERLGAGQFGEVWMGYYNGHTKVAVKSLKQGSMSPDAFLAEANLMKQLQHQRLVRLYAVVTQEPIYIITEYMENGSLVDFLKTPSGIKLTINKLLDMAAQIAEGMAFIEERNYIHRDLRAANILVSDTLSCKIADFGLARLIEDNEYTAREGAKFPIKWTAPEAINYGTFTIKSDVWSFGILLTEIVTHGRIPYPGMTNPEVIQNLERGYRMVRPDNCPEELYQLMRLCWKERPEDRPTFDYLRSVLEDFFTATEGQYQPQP

Work on `CC1(C)CCC2=C(O1)c1ccccc1C(=O)C2=O` [β-Lapachone] yielded an inhibition at 5 µM (12-LO; 12-LO, 5 µM, read-out: % inhibition of control values, 1st measure) of 40.7%, an inhibition at 5 µM (12-LO; 12-LO, 5 µM, read-out: % inhibition of control values, 2nd measure) of 35.3% and an inhibition at 5 µM (12-LO; read-out: % inhibition of control values, Mean) of 38%. It also gave an inhibition at 150 µM (EGFR; [1]) of 67.1%, an inhibition at 150 µM (EGFR; [2]) of 68.5% and an inhibition at 150 µM (EGFR; [3]) of 65.7%. For the same molecule, the inhibition at 150 µM (EphA3; [1]) was 65.1%, the inhibition at 150 µM (EphA3; [2]) was 66.8% and the inhibition at 150 µM (EphA3; [3]) was 63.3%. It also gave an inhibition at 150 µM (Lck; Flag: Interference, read-out: % Inhibition of control values, 1st measurement) of -32.6%, an inhibition at 150 µM (Lck; Flag: Interference, read-out: % Inhibition of control values, 2nd measurement) of -37.7% and an inhibition at 150 µM (Lck; n = 2, Flag: Interference, read-out: % Inhibition of control values, Mean) of -35.2%. It also gave an inhibition at 150 µM (ERK2; [1]) of 45.9%, an inhibition at 150 µM (ERK2; [2]) of 44.8% and an inhibition at 150 µM (ERK2; [3]) of 46.9%. The IC50 (HL-60 cells; read-out: IC50 (control)) was 390 nM, the IC50 (HL-60 cells; read-out: IC50 (differentiated)) was 180 nM and the IC50 (EP1) was greater than 100000 nM.
